Each structure is given as a SMILES string.

This series in a line: Recovery of 3,4-DHPEA-EDA spiked into rat plasma. Type of series: in vitro ADME. Particulars: recovery yield check. The protocol:
After oral administration of 3,4-DHPEA-EDA, HT (27.7 AUC0→4 h-i.g./Dosei.g.), HVAOH (4.2 AUC0→4 h-i.g./Dosei.g.), and HVA (4.5 AUC0→4 h-i.g./Dosei.g.) were detected in the portal plasma. Low absorption of 3,4-DHPEA-EDA is reported in some papers. […] Plasma components such as serum albumin, serum lipoprotein, and glycoprotein may have bound 3,4-DHPEA-EDA and hindered its detection. 3,4-DHPEA-EDA as a dialdehyde form might quickly bind to proteins bearing primary amines such as globulins, albumins, and other functional proteins in blood plasma, as malondialdehyde does. […] To our knowledge, this is the first report of the formation of HVAOH from 3,4-DHPEA-EDA.

`CC=C(C=O)C(CC=O)CC(=O)OCCc1ccc(O)c(O)c1` (stereo not shown) [3,4-DHPEA-EDA, 3,4-dihydroxyphenylethyl elenolate dialdehydic form]: the “Recovery of 3,4-DHPEA-EDA spiked into rat plasma” value was “could not be detected”.

Source of the values: article PMC4745926, “Absorption, Metabolism, and Excretion by Freely Moving Rats of 3,4-DHPEA-EDA and Related Polyphenols from Olive Fruits (Olea europaea)” (Journal of Nutrition and Metabolism, 2016).
